The experiment deals with T1, human NOX4 (Homo sapiens, UniProt Q9NPH5).
T1 construct: expressed in transfected cells; membrane fraction used
T1 sequence (Q9NPH5 1-578): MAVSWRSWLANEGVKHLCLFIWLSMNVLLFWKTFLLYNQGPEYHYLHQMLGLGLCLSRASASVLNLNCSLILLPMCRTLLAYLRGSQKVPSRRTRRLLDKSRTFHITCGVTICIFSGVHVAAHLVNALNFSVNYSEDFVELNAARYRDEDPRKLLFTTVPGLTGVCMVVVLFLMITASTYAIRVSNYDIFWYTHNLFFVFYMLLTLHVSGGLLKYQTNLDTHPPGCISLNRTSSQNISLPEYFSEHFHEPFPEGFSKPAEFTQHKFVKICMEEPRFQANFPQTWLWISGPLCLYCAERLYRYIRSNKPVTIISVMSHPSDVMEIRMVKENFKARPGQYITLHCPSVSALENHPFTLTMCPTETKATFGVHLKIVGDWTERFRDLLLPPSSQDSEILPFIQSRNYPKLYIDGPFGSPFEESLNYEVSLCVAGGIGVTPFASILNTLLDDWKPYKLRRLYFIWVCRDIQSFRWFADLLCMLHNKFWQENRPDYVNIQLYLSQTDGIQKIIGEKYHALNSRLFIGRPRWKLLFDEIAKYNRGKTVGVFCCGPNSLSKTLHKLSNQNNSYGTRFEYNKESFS
T1 sequence (P13498 1-195 partner): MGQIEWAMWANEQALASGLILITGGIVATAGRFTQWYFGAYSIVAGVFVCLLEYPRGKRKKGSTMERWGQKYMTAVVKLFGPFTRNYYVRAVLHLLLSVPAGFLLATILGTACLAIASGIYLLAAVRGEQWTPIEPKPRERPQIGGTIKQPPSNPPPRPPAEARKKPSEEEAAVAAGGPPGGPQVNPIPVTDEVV
The experiment can be described thus: Cell free membrane based in vitro NOX4 assay: H2O2 production by membranes expressing human NOX4, measured with Amplex Red. Type of experiment: biochemical. Particulars: for IC50: class symbols; for inhibition at 1 µM: read-out: Percentage inhibition at 1.0 μM; for inhibition at 10 µM: read-out: Percentage inhibition at 10.0 μM. The method in brief: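 IC50 came from concentration-response curves fitted as % of the inhibitor-free maximum. H2O2 formation was monitored for 10 min via Amplex Red/HRP fluorescence (544/590 nm) after NADPH start. Membranes from a stable hNOX4/HEK line had 20 min exposure to inhibitor beforehand at pH 7.4.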

The record followed here is US20200247800A1, “SUBSTITUTED BICYCLIC HETEROCYCLIC COMPOUNDS AS NADPH OXIDASE INHIBITORS” (Glenmark Pharmaceuticals S.A., priority 2017, published 2020).

As usually defined, the IC50 is the point on the concentration scale where inhibition reaches its midpoint. Lower therefore signals higher potency. `Cn1nc(CN2CCN(CC(F)(F)F)CC2)c2c(=O)c(O)c(-c3c(F)cccc3F)[nH]c21` [Example 220, 6-(2,6-Difluorophenyl)-5-hydroxy-1-methyl-3-((4-(2,2,2-trifluoroethyl)piperazin-1-yl)methyl)-1H-pyrazolo[3,4-b]pyridin-4(7H)-one] returned an IC50 above 150 nM. The “Percentage inhibition at 1.0 μM” value (1.0 μM compound, 1 µM) came out at 87.57%. For the same compound, the “Percentage inhibition at 10.0 μM” value (10.0 μM compound) was 100.00%.
As usually defined, the inhibition is the percentage by which the read-out fell short of the control. For the compound `CCc1nn(CCN2CCN(C)CC2)c2[nH]c(-c3ccccc3Cl)c(O)c(=O)c12` [Example 165, 6-(2-Chlorophenyl)-3-ethyl-5-hydroxy-1-(2-(4-methylpiperazin-1-yl)ethyl)-1H-pyrazolo[3,4-b]pyridine-4(7H)-one], the IC50 was below 50 nM. Also, the inhibition at 1 µM (1.0 μM compound) worked out at 99.9%. For the setting “10.0 μM compound”, the inhibition at 10 µM is 80.1%.
In the same order, the values of `Cc1nn(CCN2CCOCC2)c2[nH]c(-c3cccc(C(F)(F)F)c3F)c(O)c(=O)c12` [Example 153, 6-(2-fluoro-3-(trifluoromethyl)phenyl)-5-hydroxy-3-methyl-1-(2-morpholinoethyl)-1H-pyrazolo[3,4-b]pyridin-4(7H)-one] are above 150 nM, 100% and 93%.
As to `COc1ccc(-c2[nH]c3c(c(C)nn3C)c(=O)c2O)c(F)c1` [Example 19, 6-(2-Fluoro-4-methoxyphenyl)-5-hydroxy-1,3-dimethyl-1,7-dihydro-4H-pyrazolo[3,4-b]pyridin-4-one], the IC50 fell in the range of 50 to 100 nM. The inhibition at 1 µM (1.0 μM compound) was 95.3%. Further, where the note is “10.0 μM compound”, the inhibition at 10 µM was 75.2%.
The corresponding values for `Cn1nc(C(F)(F)F)c2c(=O)c(O)c(-c3cc(CNC(=O)C(C)(C)C)ccc3Cl)[nH]c21` [Example 132, N-(4-Chloro-3-(5-hydroxy-1-methyl-4-oxo-3-(trifluoromethyl)-4,7-dihydro-1H-pyrazolo[3,4-b]pyridin-6-yl)benzyl)pivalamide] are above 150 nM, 74.8% and 88.7%.
The corresponding values for `Cn1nc(CN2CCN(C3COC3)CC2)c2c(=O)c(O)c(-c3c(F)cccc3F)[nH]c21` [Example 219, 6-(2,6-Difluorophenyl)-5-hydroxy-1-methyl-3-((4-(oxetan-3-yl)piperazin-1-yl)methyl)-1H-pyrazolo[3,4-b]pyridin-4(7H)-one] are above 150 nM, 81.7% and 89.2%.
The corresponding values for `O=c1c(O)c(-c2ccccc2Cl)[nH]c2c1c(C(F)(F)F)nn2CCN1CCOCC1` [Example 150, 6-(2-Chlorophenyl)-5-hydroxy-1-(2-morpholinoethyl)-3-(trifluoromethyl)-1H-pyrazolo[3,4-b]pyridin-4(7H)-one] are above 150 nM, 67.1% and 84.4%.
As to `Cc1nn(C)c2[nH]c(-c3ccc(F)cc3Cl)c(O)c(=O)c12` [Example 12, 6-(2-Chloro-4-fluorophenyl)-5-hydroxy-1,3-dimethyl-1,7-dihydro-4H-pyrazolo[3,4-b]pyridin-4-one], the IC50 lay within 50 to 100 nM. For the same compound, the inhibition at 1 µM (1.0 μM compound) worked out at 95%. Also, the inhibition at 10 µM (10.0 μM compound) is 86%.
The corresponding values for `Cc1nn(C2CCCCC2)c2[nH]c(-c3c(F)cccc3F)c(O)c(=O)c12` [Example 136, 1-Cyclohexyl-6-(2,6-difluorophenyl)-5-hydroxy-3-methyl-1,7-dihydro-4H-pyrazolo[3,4-b]pyridin-4-one] are below 50 nM, 85% and 87.5%.
In the same order, the values of `CCn1nc(C)c2c(=O)c(O)c(-c3ccccc3OC)[nH]c21` [Example 110, 1-Ethyl-5-hydroxy-6-(2-methoxyphenyl)-3-methyl-1H-pyrazolo[3,4-b]pyridin-4(7H)-one] are above 150 nM, 60.5% and 63%.
The corresponding values for `CCc1nn(CCN2C[C@@H](C)O[C@@H](C)C2)c2[nH]c(-c3ccccc3Cl)c(O)c(=O)c12` [Example 202, 6-(2-Chlorophenyl)-1-(2-((2R,6S)-2,6-dimethylmorpholino)ethyl)-3-ethyl-5-hydroxy-1H-pyrazolo[3,4-b]pyridin-4(7H)-one] are 100 to 150 nM, 82.8% and 78%.
In turn, `CCc1nn(C)c2[nH]c(-c3c(F)cccc3F)c(O)c(=O)c12` [Example 71, 6-(2,6-Difluorophenyl)-3-ethyl-5-hydroxy-1-methyl-1H-pyrazolo[3,4-b]pyridin-4(7H)-one] yielded an IC50 below 50 nM. For the setting “1.0 μM compound”, the inhibition at 1 µM was determined as 81.5%. Also, the inhibition at 10 µM (10.0 μM compound) came to 79.3%.
`Cc1c2oc(-c3ccccc3Cl)c(O)c(=O)c2nn1C` [Example 227, 5-(2-chlorophenyl)-6-hydroxy-2,3-dimethylpyrano[3,2-c]pyrazol-7(2H)-one]: under “1.0 μM compound”, the inhibition at 1 µM was found to be 6.03%. In addition, the inhibition at 10 µM (10.0 μM compound) was 16%.
For the compound `CC(C)N1CCN(Cc2nn(C)c3[nH]c(-c4c(F)cccc4F)c(O)c(=O)c23)CC1` [Example 192, 6-(2,6-Difluorophenyl)-5-hydroxy-3-((4-isopropylpiperazin-1-yl)methyl)-1-methyl-1H-pyraazolo[3,4-b]pyridin-4(7H)-one], the IC50 lay within 50 to 100 nM. In addition, where the note is “1.0 μM compound”, the inhibition at 1 µM turned out to be 90.6%. Further, the inhibition at 10 µM (10.0 μM compound) came to 95.3%.
In the same order, the values of `Cc1nn(CCN2C[C@@H](C)O[C@@H](C)C2)c2[nH]c(-c3ccccc3Cl)c(O)c(=O)c12` [Example 148, 6-(2-Chlorophenyl)-1-(2-((2S,6R)-2,6-dimethylmorpholino)ethyl)-5-hydroxy-3-methyl-1H-pyrazolo[3,4-b]pyridin-4(7H)-one] are above 150 nM, 94.3% and 85.3%.
As to `CCc1nn(C)c2[nH]c(-c3ccc(OC)cc3Cl)c(O)c(=O)c12` [Example 73, 6-(2-Chloro-4-methoxyphenyl)-3-ethyl-5-hydroxy-1-methyl-1H-pyrazolo[3,4-b]pyridin-4(7H)-one], the IC50 fell in the range of 50 to 100 nM. Further, the inhibition at 1 µM (1.0 μM compound) came to 79.8%. The inhibition at 10 µM (10.0 μM compound) came to 73.1%.
The corresponding values for `CCn1nc(C)c2c(=O)c(O)c(-c3cc(CNC(=O)C(C)(C)C)ccc3F)[nH]c21` [Example 138, N-(3-(1-Ethyl-5-hydroxy-3-methyl-4-oxo-4,7-dihydro-1H-pyrazolo[3,4-b]pyridin-6-yl)-4-fluorobenzyl)pivalamide] are above 150 nM, 92.6% and 85%.
Turning to `COCCOc1ccc(-c2[nH]c3c(c(C)nn3C)c(=O)c2O)c(Cl)c1` [Example 65, 6-(2-Chloro-4-(2-methoxyethoxy)phenyl)-5-hydroxy-1,3-dimethyl-1H-pyrazolo[3,4-b]pyridin-4(7H)-one], the IC50 was above 150 nM. Under “1.0 μM compound”, the inhibition at 1 µM came to 74.7%. The inhibition at 10 µM (10.0 μM compound) was determined as 63.1%.
In the same order, the values of `Cc1nn(CCN2CCN(C)CC2)c2[nH]c(-c3ccccc3Cl)c(O)c(=O)c12` [Example 155, 6-(2-chlorophenyl)-5-hydroxy-3-methyl-1-(2-(4-methylpiperazin-1-yl)ethyl)-1H-pyrazolo[3,4-b]pyridin-4(7H)-one] are below 50 nM, 100% and 93.3%.
As for `Cc1noc2[nH]c(-c3ccccc3Cl)c(O)c(=O)c12` [Example 64, 6-(2-Chlorophenyl)-5-hydroxy-3-methyl[1,2]oxazolo[5,4-b]pyridin-4(7H)-one], the half-maximal inhibitory concentration (IC50) was above 150 nM. Where the note is “1.0 μM compound”, the inhibition at 1 µM came out at 68.8%. For the same compound, the inhibition at 10 µM (10.0 μM compound) came out at 100%.
The corresponding values for `CCc1nn(C)c2[nH]c(-c3cccc(C(F)(F)F)c3F)c(O)c(=O)c12` [Example 160, 3-Ethyl-6-(2-fluoro-3-(trifluoromethyl)phenyl)-5-hydroxy-1-methyl-1H-pyrazolo[3,4-b]pyridine-4(7H)-one] are above 150 nM, 80.7% and 68.9%.
The corresponding values for `Cc1nn(CCN(C)C)c2[nH]c(-c3c(F)cccc3F)c(O)c(=O)c12` [Example 89, 6-(2,6-Difluorophenyl)-1-(2-(dimethylamino)ethyl)-5-hydroxy-3-methyl-1H-pyrazolo[3,4-b]pyridin-4(7H)-one] are 50 to 100 nM, 100% and 100%.
In the same order, the values of `CCc1nn(CCN2CCOCC2)c2[nH]c(-c3ccccc3Cl)c(O)c(=O)c12` [Example 146, 6-(2-Chlorophenyl)-3-ethyl-5-hydroxy-1-(2-morpholinoethyl)-1H-pyrazolo[3,4-b]pyridin-4(7H)-one] are 100 to 150 nM, 94% and 81.8%.
